Biological target: T1, Prodrug activation and resistance esterase (PfPARE) (Plasmodium falciparum, UniProt Q8IBZ2)
T1 construct: gene PF3D7_0709700; native 37 kDa species in saponin-isolated parasite lysate; also confirmed with endogenous C-terminal YFP fusion
Experiment: gel-based competitive ABPP with TAMRA-FP in parasite lysate; identity confirmed by YFP-tag shift
Format: biochemical

T1 sequence (Q8IBZ2 entry or part of it): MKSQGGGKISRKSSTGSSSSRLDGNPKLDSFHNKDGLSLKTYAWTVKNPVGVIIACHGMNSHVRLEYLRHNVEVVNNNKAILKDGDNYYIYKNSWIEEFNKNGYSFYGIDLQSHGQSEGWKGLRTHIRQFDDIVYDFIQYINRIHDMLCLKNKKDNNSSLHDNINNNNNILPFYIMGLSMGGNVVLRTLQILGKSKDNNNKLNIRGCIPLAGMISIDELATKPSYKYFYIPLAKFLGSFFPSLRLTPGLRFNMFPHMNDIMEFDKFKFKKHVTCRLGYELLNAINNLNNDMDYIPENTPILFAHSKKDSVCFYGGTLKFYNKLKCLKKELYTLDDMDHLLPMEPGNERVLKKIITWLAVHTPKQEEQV

IC50: 2.5 ± 0.6 nM
SMILES: O=C(OC(C(F)(F)F)C(F)(F)F)N1CCN(Cc2cccc(Oc3ccccc3)c2)CC1 [JW642]

Reference: article PMC6879560, “Functional annotation of serine hydrolases in the asexual erythrocytic stage of Plasmodium falciparum” (Scientific Reports, 2019)
